Test results reported in patent publication US9765075B2, “Substituted bridged urea analogs as sirtuin modulators” (GLAXOSMITHKLINE LLC, priority 2013, dated 2017).
Changes are numbered by the printed parent chain. Structures can show the parent of a compound that is named as a salt.

Key:
Experiment in all cases: SIRT1 inhibition assay, OAcADPr mass spectrometry
Format in all cases: biochemical
full-length hSIRT1 Q222A = biological target: T1, full-length hSIRT1 Q222A (Homo sapiens, UniProt Q96EB6, Q222A)
T1 construct: The following point mutants of full-length hSIRT1 were generated; made in house
T1 sequence (Q96EB6 1-747 Q222A): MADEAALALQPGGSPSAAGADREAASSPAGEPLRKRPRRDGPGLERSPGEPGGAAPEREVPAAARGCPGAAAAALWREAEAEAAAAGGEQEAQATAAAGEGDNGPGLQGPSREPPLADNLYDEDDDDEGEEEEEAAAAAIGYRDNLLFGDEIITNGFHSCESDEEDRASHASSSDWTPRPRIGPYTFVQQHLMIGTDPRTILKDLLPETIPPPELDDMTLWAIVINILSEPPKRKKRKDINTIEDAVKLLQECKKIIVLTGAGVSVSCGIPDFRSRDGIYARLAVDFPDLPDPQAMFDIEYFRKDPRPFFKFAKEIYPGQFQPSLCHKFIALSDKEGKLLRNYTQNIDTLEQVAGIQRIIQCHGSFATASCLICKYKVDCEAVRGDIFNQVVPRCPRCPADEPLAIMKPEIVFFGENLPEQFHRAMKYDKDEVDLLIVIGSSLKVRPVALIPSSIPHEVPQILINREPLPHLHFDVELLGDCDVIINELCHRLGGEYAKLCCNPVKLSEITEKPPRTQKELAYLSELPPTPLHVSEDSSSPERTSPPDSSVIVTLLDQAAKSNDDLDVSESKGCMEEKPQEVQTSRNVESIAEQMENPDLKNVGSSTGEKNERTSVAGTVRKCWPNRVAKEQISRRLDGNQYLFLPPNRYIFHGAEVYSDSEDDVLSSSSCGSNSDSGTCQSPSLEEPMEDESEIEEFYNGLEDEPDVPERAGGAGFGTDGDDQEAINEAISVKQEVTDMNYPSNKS
Procedure: (§1) SIRT1 activation and inhibition assays were run in reaction buffer with 0.05% BSA at 25° C. and analyzed using the OAcADPr assay. Enzyme and compound were pre-incubated for 20 minutes before addition of substrates.

full-length hSIRT1 E230K = biological target: T2, full-length hSIRT1 E230K (Homo sapiens, UniProt Q96EB6, E230K)
T2 construct: His6 (C); made in house
T2 sequence (Q96EB6 1-747 E230K): T1 sequence (Q96EB6 1-747 Q222A) with A222Q, E230K
Procedure: as §1

full-length hSIRT1 I223R = biological target: T3, full-length hSIRT1 I223R (Homo sapiens, UniProt Q96EB6, I223R)
T3 construct: made in house
T3 sequence (Q96EB6 1-747 I223R): T1 sequence (Q96EB6 1-747 Q222A) with A222Q, I223R
Procedure: as §1

CCCC[C@H](NC(=O)[C@H](CC(C)C)NC(=O)[C@H](CCCCNC(=O)C(F)(F)F)NC(=O)[C@H](CCCCN)NC(=O)[C@H](Cc1c[nH]cn1)NC(=O)[C@H](CCCNC(=N)N)NC(C)=O)C(=O)N[C@@H](Cc1ccccc1)C(N)=O [TFA-p53 7-mer, Ac-RHK-K^TFA-L-Nle-F-NH2]
IC50 (full-length hSIRT1 Q222A): 630 ± 50 nM
IC50 (full-length hSIRT1 E230K): 1600 ± 300 nM
IC50 (full-length hSIRT1 I223R): 660 ± 60 nM
